Results reported in the NIST ThermoML archive (doi:10.1016/j.jct.2017.05.001).

Assay: wn = mass fraction of the nth substance listed
Details: Liquid; for mass density: Vibrating tube method

OCCNCCO [diethanolamine] + O
viscosity [mPa·s]
Details	w1 = 0.0993	w1 = 0.1	w1 = 0.2	w1 = 0.3	w1 = 0.3002	w1 = 0.3997	w1 = 0.4
293.15 K, 100 kPa, Concentric cylinders viscometry	–	1.486	2.287	3.621	–	–	6.311
293.15 K, 100 kPa, Falling or rolling sphere viscometry	1.493	–	2.219	–	3.633	6.248	–
293.15 K, 5000 kPa, Falling or rolling sphere viscometry	1.49	–	2.215	–	3.617	6.351	–
293.15 K, 10000 kPa, Falling or rolling sphere viscometry	1.486	–	2.214	–	3.635	6.416	–
293.15 K, 15000 kPa, Falling or rolling sphere viscometry	1.49	–	2.217	–	3.634	6.463	–
293.15 K, 20000 kPa, Falling or rolling sphere viscometry	1.487	–	2.217	–	3.661	6.534	–
293.15 K, 25000 kPa, Falling or rolling sphere viscometry	1.488	–	2.218	–	3.676	6.598	–
293.15 K, 30000 kPa, Falling or rolling sphere viscometry	1.487	–	2.22	–	3.688	6.6	–
293.15 K, 40000 kPa, Falling or rolling sphere viscometry	1.486	–	2.221	–	3.714	6.683	–
293.15 K, 60000 kPa, Falling or rolling sphere viscometry	1.487	–	2.242	–	3.766	6.853	–
293.15 K, 80000 kPa, Falling or rolling sphere viscometry	1.49	–	2.26	–	3.818	6.973	–
293.15 K, 100000 kPa, Falling or rolling sphere viscometry	1.494	–	2.277	–	3.874	7.169	–
313.15 K, 100 kPa, Concentric cylinders viscometry	–	0.914	1.343	1.977	–	–	3.197
313.15 K, 100 kPa, Falling or rolling sphere viscometry	0.9237	–	1.304	–	1.98	3.168	–
313.15 K, 5000 kPa, Falling or rolling sphere viscometry	0.915	–	1.292	–	1.976	3.174	–
313.15 K, 10000 kPa, Falling or rolling sphere viscometry	0.9172	–	1.296	–	1.983	3.222	–
313.15 K, 15000 kPa, Falling or rolling sphere viscometry	0.9188	–	1.301	–	1.993	3.248	–
313.15 K, 20000 kPa, Falling or rolling sphere viscometry	0.9192	–	1.303	–	2.004	3.239	–
313.15 K, 25000 kPa, Falling or rolling sphere viscometry	0.9215	–	1.309	–	2.012	3.28	–

mass density [kg/m3]
Details	w1 = 0.0993	w1 = 0.2	w1 = 0.3002	w1 = 0.3997
293.15 K, 100 kPa	1009.4	1021.6	1034.5	1047.5
293.15 K, 500 kPa	1009.5	1021.7	1034.7	1047.7
293.15 K, 1000 kPa	1009.7	1021.9	1034.8	1047.9
293.15 K, 2000 kPa	1010.2	1022.3	1035.2	1048.2
293.15 K, 5000 kPa	1011.4	1023.5	1036.3	1049.3
293.15 K, 10000 kPa	1013.6	1025.5	1038.2	1051
293.15 K, 15000 kPa	1015.6	1027.4	1040	1052.8
293.15 K, 20000 kPa	1017.7	1029.4	1041.8	1054.5
293.15 K, 30000 kPa	1021.8	1033.3	1045.4	1058
293.15 K, 40000 kPa	1025.9	1037	1049	1061.4
293.15 K, 50000 kPa	1029.7	1040.7	1052.5	1064.7
293.15 K, 60000 kPa	1033.6	1044.4	1055.9	1068
293.15 K, 70000 kPa	1037.6	1048	1059.3	1071.2
293.15 K, 80000 kPa	1041.1	1051.4	1062.5	1074.3
293.15 K, 90000 kPa	1044.8	1054.9	1065.8	1077.4
293.15 K, 100000 kPa	1048.5	1058.4	1069.1	1080.6
293.15 K, 110000 kPa	1051.9	1061.6	1072.1	1083.5
293.15 K, 120000 kPa	1055.4	1064.9	1075.3	1086.5
293.15 K, 130000 kPa	1059	1068.3	1078.5	1089.6
293.15 K, 140000 kPa	1062.2	1071.4	1081.4	1092.4
313.15 K, 100 kPa	1002.9	1014.3	1026	1038
313.15 K, 500 kPa	1003.1	1014.4	1026.2	1038.2
313.15 K, 1000 kPa	1003.4	1014.6	1026.4	1038.4
313.15 K, 2000 kPa	1003.7	1015	1026.7	1038.7
313.15 K, 5000 kPa	1005	1016.2	1027.9	1039.8
313.15 K, 10000 kPa	1007	1018.2	1029.7	1041.7
313.15 K, 15000 kPa	1009	1020.1	1031.6	1043.4
313.15 K, 20000 kPa	1011	1022	1033.4	1045.1
